The values below come from patent US20090023646A1, “GHRH analogues” (Centre Hospitalier de L'Universite de Montreal (CHUM), priority 2002, published 2009).

Series [1] in a line: In vitro proteolysis assay in rat serum. As to conditions: mean±SEM; for Residual concentration: incubation 0 min; for remaining at 8 min, 15 µM / remaining at 0.25 h, 15 µM / remaining at 0.5 h, 15 µM / remaining at 1 h, 15 µM: male, Sprague Dawley, read-out: Residual concentration; for remaining at 8 min, 15 µM: diluted 1/100, incubation 8 min; for remaining at 0.25 h, 15 µM: diluted 1/100, incubation 15 min; for remaining at 0.5 h, 15 µM: diluted 1/100, incubation 30 min; for remaining at 1 h, 15 µM: diluted 1/100, incubation 60 min. It counts as in vitro ADME.
Protocol: Proteolysis was stopped by adding 800 μl of ice-cold stop buffer (potassium-phosphate buffer, acidified to pH 0.8 with trifluoroacetic acid (TFA) and boiling 5 min (rat serum only). After centrifugation (12000 g, 5 min, 4° C.) (rat serum only), serum-peptide mixtures were passed through a conditioned Sep-Pak C-18 cartridge to extract native GHRH or a GHRH analogue residual concentrations from serum proteins. The native GHRH or the analogue was eluted in 2 ml of 50% acetonitrile-0.01% TFA/50% 0.01% aqueous TFA. Two hundred μl of extracted peptide, representing 1 μg of GHRH or analogue at time 0, was quantified by analytical HPLC, using one μ-Bondapak C18 column (10 μm particle size, 0.39×15 cm) (rat serum) or two C18 column in series (human serum and plasma) and a binary solvent system composed of NaClO4 0.01 M, pH 2.5 and acetonitrile. A linear gradient from 30 to 60% acetonitrile over 45 min (rat serum) or 30 to 50% (human serum and plasma) was used.

The nature of series [2]: In vitro proteolysis assay in human serum. It counts as in vitro ADME. As to conditions: human serum.
Protocol: Ten μl of a 300 M solution of hGHRH (1-29)NH2 or of a GHRH analogue was solubilized in dimethylsulfoxide (DMSO) and incubated in one of the following conditions: a—190 μl serum (1/100 dilution in picopure water) from 2-month-old male Sprague Dawley rats, at 37° C. for 0, 8, 15, 30 or 60 min, in polypropylene tubes; b—190 μl of human healthy volunteer plasma (from Human Whole Blood Na EDTA, males, drug free (Algorithme Pharma Inc.); project: MTL-P2-155; Lot: MTLP2155-01, supplied by LAB Dev Int); and c—190 μl of human healthy volunteer pooled serum, Lot: X409 (supplied by LAB Dev Int), at 37° C. for 0, 60, 120, 180 or 420 min, in polypropylene tubes. Proteolysis was stopped by adding 800 μl of ice-cold stop buffer (potassium-phosphate buffer, acidified to pH 0.8 with trifluoroacetic acid (TFA) and boiling 5 min (rat serum only). After centrifugation (12000 g, 5 min, 4° C.) (rat serum only), serum-peptide mixtures were passed through a conditioned Sep-Pak C-18 cartridge to extract native GHRH or a GHRH analogue residual concentrations from serum proteins. The native GHRH or the analogue was eluted in 2 ml of 50% acetonitrile-0.01% TFA/50% 0.01% aqueous TFA. Two hundred μl of extracted peptide, representing 1 μg of GHRH or analogue at time 0, was quantified by analytical HPLC, using one μ-Bondapak C18 column (10 μm particle size, 0.39×15 cm) (rat serum) or two C18 column in series (human serum and plasma) and a binary solvent system composed of NaClO4 0.01 M, pH 2.5 and acetonitrile. A linear gradient from 30 to 60% acetonitrile over 45 min (rat serum) or 30 to 50% (human serum and plasma) was used.
More specifically, the values represent the mean, standard deviation and standard error from the mean of 3 to 7 experiments.
A further series is described as follows: in vitro. The following applies: male, human, plasma, Mean residual amount.

Ends that are not written are not given here.

As for `CC[C@H](C)[C@H](NC(=O)[C@H](C)NC(=O)[C@H](CC(=O)O)NC(=O)[C@H](C)NC(=O)[C@@H](N)Cc1ccc(O)cc1)C(=O)N[C@@H](Cc1ccccc1)C(=O)N[C@H](C(=O)N[C@@H](CC(N)=O)C(=O)N[C@@H](CO)C(=O)N[C@@H](Cc1ccc(O)cc1)C(=O)N[C@@H](CCCNC(=N)N)C(=O)N[C@@H](CCCCN)C(=O)N[C@H](C(=O)N[C@@H](CC(C)C)C(=O)NCC(=O)N[C@@H](CCC(N)=O)C(=O)N[C@@H](CC(C)C)C(=O)N[C@@H](CO)C(=O)N[C@@H](C)C(=O)N[C@@H](CCCNC(=N)N)C(=O)N[C@@H](CCCCN)C(=O)N[C@@H](CC(C)C)C(=O)N[C@@H](CC(C)C)C(=O)N[C@@H](CCC(N)=O)C(=O)N[C@@H](CC(=O)O)C(=O)N[C@H](C(=O)N[C@@H](CCSC)C(=O)N[C@@H](CO)C(=O)N[C@@H](CCCNC(=N)N)C(N)=O)[C@@H](C)CC)C(C)C)[C@@H](C)O` [hGHRH(1-29)NH2, reference compound], in series [1], the Residual concentration was 100 ± 0 % of initial concentration; the remaining at 8 min, 15 µM stood at 81 ± 2%; the remaining at 0.25 h, 15 µM came to 66 ± 3%; the remaining at 0.5 h, 15 µM stood at 43 ± 2%. The remaining at 1 h, 15 µM in series [1] is 16 ± 1%. The compound further gave a Mean residual amount in series [2] (incubation time 0 min) of 100%. In addition, the Mean residual amount result in series [2] (incubation time 420 min) is reported as “disappeared totally”. The remaining at 1 h, 15 µM in series [2] (human, pooled human serum, incubation time 60 min, read-out: Mean residual amount) was found to be 57%. For the same compound, the remaining at 2 h, 15 µM in series [2] (human, pooled human serum, incubation time 120 min, read-out: Mean residual amount) turned out to be 37%. For the same compound, the remaining at 3 h, 15 µM in series [2] (human, pooled human serum, incubation time 180 min, read-out: Mean residual amount) stood at 16%. For the same compound, the remaining at 7 h, 15 µM in series [2] (human, pooled human serum, incubation time 420 min, read-out: Mean residual amount) stood at 0%. In “in vitro”, this compound returned a remaining at 1 h, 15 µM of 53%; a remaining at 2 h, 15 µM of 44%; a remaining at 3 h, 15 µM of 23%; a remaining at 7 h, 15 µM of 5%.

“YADAIFTAAYRKVLAQLSARKALQDIMSR-NH2 [GHRH analogue #2, [Ala^8, Ala^9, Ala^15, Ala^22] hGHRH(1-29)-NH2]”: in series [1], the Residual concentration was 100 ± 0 % of initial concentration; the remaining at 8 min, 15 µM came out at 83 ± 3%; the remaining at 0.25 h, 15 µM came out at 73 ± 5%; the remaining at 0.5 h, 15 µM turned out to be 53 ± 3%. Further, in series [1], the remaining at 1 h, 15 µM was 29 ± 2%.
